pIC50: −log10 of the molar value.
Assays:
Type in all cases: biochemical
[1] = biological target: Pim-3 (Homo sapiens (Human), UniProt Q86V86); test: Pim-3 kinase assay; conditions: 1 mM ATP, biotin-labeled BAD peptide substrate; read-out: Pim3 IC50
Description: (§1) Pim-1 and Pim-3 kinase assays-20 μL reactions were run in white 384 well polystyrene plates dotted with 0.8 μL compound/DMSO in the assay buffer (50 mM Tris, pH 7.5, 0.01% Tween-20, 5 mM MgCl2, 0.01% BSA, 5 mM DTT), containing […] Biotin-labeled BAD peptide substrate (AnaSpec 62269), 1 mM ATP, and 2.5 pM (Pim-1, Invitrogen PV3503) or 1.25 pM (Pim-3, Millipore 14-738) enzyme for 1 h at 25° C. Reactions were stopped by addition of 10 μL STOP Buffer (150 mM Tris, pH=7.5, 150 mM NaCl, 75 mM EDTA, 0.01% Tween-20, 0.3% BSA) supplemented with Phospho-Bad (Ser112) Antibody (Cell Signaling 9291) diluted 666-fold, and Streptavidin donor beads (PerkinElmer 6760002) along with Protein-A acceptor beads (PerkinElmer 6760137) at 15 μg/mL each. Supplementation of the STOP buffer with beads and stopping the reactions were done under reduced light. Prior to the stopping reactions STOP buffer with beads was pre-incubated for 1 h in the dark at room temperature. After stopping the reactions, plates were incubated for 1 h in the dark at room temperature before reading on a PHERAstar FS plate reader (BMG Labtech) under reduced light.

[2] = biological target: Pim-1 (Homo sapiens (Human), UniProt P11309); test: Pim-1 kinase assay; conditions: 1 mM ATP, biotin-labeled BAD peptide substrate; read-out: Pim1 IC50
Sequence of Pim-1 (P11309 whole entry): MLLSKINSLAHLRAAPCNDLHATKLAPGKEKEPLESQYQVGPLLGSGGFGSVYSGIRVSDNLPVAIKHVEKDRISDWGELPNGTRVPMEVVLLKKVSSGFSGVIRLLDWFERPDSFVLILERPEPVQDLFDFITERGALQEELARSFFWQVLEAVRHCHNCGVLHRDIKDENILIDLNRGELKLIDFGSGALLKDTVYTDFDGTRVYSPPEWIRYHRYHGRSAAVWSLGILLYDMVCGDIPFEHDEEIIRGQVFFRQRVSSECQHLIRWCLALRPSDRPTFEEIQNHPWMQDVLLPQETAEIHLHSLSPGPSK
Description: as §1

[3] = biological target: Pim-2 (Homo sapiens (Human), UniProt Q9P1W9); test: Pim-2 kinase assay; conditions: 1 mM ATP, fluorescein-labeled CREBtide peptide substrate; read-out: Pim2 IC50
Sequence of Pim-2 (Q9P1W9 whole entry): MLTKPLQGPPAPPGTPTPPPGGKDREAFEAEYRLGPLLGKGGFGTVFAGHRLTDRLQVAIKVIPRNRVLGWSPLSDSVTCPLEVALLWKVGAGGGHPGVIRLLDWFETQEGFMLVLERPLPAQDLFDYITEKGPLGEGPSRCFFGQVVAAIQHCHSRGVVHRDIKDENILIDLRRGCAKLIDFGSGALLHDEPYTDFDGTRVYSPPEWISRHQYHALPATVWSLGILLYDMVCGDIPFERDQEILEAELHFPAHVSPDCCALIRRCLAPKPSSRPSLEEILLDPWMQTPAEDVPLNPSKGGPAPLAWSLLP
Description: Pim-2 kinase assay-20 μL reactions were run in white 384 well polystyrene plates dotted with 0.8 μL compound/DMSO in the assay buffer (50 mM Tris, pH 7.5, 0.01% Tween-20, 5 mM MgCl2, 0.01% BSA, 5 mM DTT), containing 0.05 μm Fluorescein-labeled CREBtide peptide substrate (Invitrogen PV3508), 1 mM ATP, and 1 nM enzyme (Invitrogen PV3649) for 2 h at 25° C. Reactions were stopped by addition of 10 μL TR-FRET Dilution Buffer (Invitrogen PV3574) with 30 mM EDTA and 1.5 nM LanthaScreen Tb-CREB pSer133 antibody (Invitrogen PV3566). After 30 min. incubation at room temperature, plates were read on a PHERAstar FS plate reader (BMG Labtech).

SMILES | pIC50 [1] | pIC50 [2] | pIC50 [3]
Nc1oc2cccnc2c1C(=O)Nc1cnccc1N1C[C@@H](N)[C@H](O)[C@@H](C(F)(F)F)C1 (single isomer, unassigned) [Example 87 (Diastereoisomer 2)] | ≥ 8.00 | ≥ 8.00 | 7.00 to 8.00
Nc1sc2ccc(Cl)nc2c1C(=O)Nc1cnccc1N1CCC[C@H](N)C1 (stereo in doubt) [Example 40, 2-Amino-N-[4-(3-aminopiperidin-1-yl)pyridin-3-yl]-5-chlorothieno[3,2-b]pyridine-3-carboxamide] | 7.00 to 8.00 | ≥ 8.00 | < 5.70
Cc1ccc2sc(N)c(C(=O)Nc3cnccc3N3CCC[C@H](N)C3)c2n1 (stereo in doubt) [Example 42, 2-Amino-N-[4-(3-aminopiperidin-1-yl)pyridin-3-yl]-5-methylthieno[3,2-b]pyridine-3-carboxamide] | < 7.40 | < 7.40 | < 5.70
Cn1ncc(NC(=O)c2c(N)sc3cccnc23)c1N1CCCC(N)CC1 (stereo not drawn) [Example 1, 2-Amino-N-[5-(4-aminoazepan-1-yl)-1-methyl-1H-pyrazol-4-yl]thieno[3,2-b]pyridine-3-carboxamide] | ≥ 8.00 | ≥ 8.00 | 6.00 to 7.00
Cn1ncc(NC(=O)c2c(N)sc3cccnc23)c1N1CCC[C@H](N)C1 [Example 2, 2-Amino-N-{5-[(3S)-3-aminopiperidin-1-yl]-1-methyl-1H-pyrazol-4-yl}thieno[3,2-b]pyridine-3-carboxamide] | ≥ 8.00 | ≥ 8.00 | 6.00 to 7.00
Cn1ncc(NC(=O)c2c(N)sc3cccnc23)c1N1CCC[C@@H](N)C1 [Example 3, 2-Amino-N-{5-[(3R)-3-aminopiperidin-1-yl]-1-methyl-1H-pyrazol-4-yl}thieno[3,2-b]pyridine-3-carboxamide] | ≥ 8.00 | ≥ 8.00 | < 5.70
Cn1ncc(NC(=O)c2c(N)sc3cccnc23)c1N1CCCNCC1 [Example 4, 2-Amino-N-[5-(1,4-diazepan-1-yl)-1-methyl-1H-pyrazol-4-yl]thieno[3,2-b]pyridine-3-carboxamide] | ≥ 8.00 | ≥ 8.00 | < 6.00
Cn1ncc(NC(=O)c2c(N)sc3cccnc23)c1-c1ccc2c(c1)C(N)CC2 (stereo not drawn) [Example 5, 2-Amino-N-[5-(3-amino-2,3-dihydro-1H-inden-5-yl)-1-methyl-1H-pyrazol-4-yl]thieno[3,2-b]pyridine-3-carboxamide] | ≥ 8.00 | ≥ 8.00 | 6.00 to 7.00
Nc1sc2cccnc2c1C(=O)Nc1cnccc1N1CCC[C@H](N)C1 [Example 6, 2-Amino-N-{4-[(3S)-3-aminopiperidin-1-yl]pyridin-3-yl}thieno[3,2-b]pyridine-3-carboxamide] | ≥ 8.00 | ≥ 8.00 | 6.00 to 7.00
Nc1sc2cccnc2c1C(=O)Nc1cnccc1N1CCC[C@@H](N)C1 [Example 7, 2-Amino-N-{4-[(3R)-3-aminopiperidin-1-yl]pyridin-3-yl}thieno[3,2-b]pyridine-3-carboxamide] | < 7.40 | ≥ 8.00 | < 5.70
Nc1sc2cccnc2c1C(=O)Nc1cnccc1N1CCCNCC1 [Example 8, 2-Amino-N-[4-(1,4-diazepan-1-yl)pyridin-3-yl]thieno[3,2-b]pyridine-3-carboxamide] | < 7.40 | ≥ 8.00 | < 5.70
Nc1sc2cccnc2c1C(=O)Nc1cnccc1N1CCCC(N)CC1 (stereo not drawn) [Example 9, 2-Amino-N-[4-(4-aminoazepan-1-yl)pyridin-3-yl]thieno[3,2-b]pyridine-3-carboxamide] | < 7.40 | 7.00 to 8.00 | < 5.70
COc1cnc2c(C(=O)Nc3cnccc3N3CCC[C@H](N)C3)c(N)sc2c1 [Example 12, 2-Amino-N-{4-[(3S)-3-aminopiperidin-1-yl]pyridin-3-yl}-6-methoxythieno[3,2-b]pyridine-3-carboxamide] | ≥ 8.00 | ≥ 8.00 | 6.00 to 7.00
COc1cnc2c(C(=O)Nc3cnn(C)c3N3CCCC(N)CC3)c(N)sc2c1 (stereo not drawn) [Example 13, 2-Amino-N-[5-(4-aminoazepan-1-yl)-1-methyl-1H-pyrazol-4-yl]-6-methoxythieno[3,2-b]pyridine-3-carboxamide] | ≥ 8.00 | ≥ 8.00 | 7.00 to 8.00
Nc1sc2cc(OC3CC3)cnc2c1C(=O)Nc1cnccc1N1CCC[C@H](N)C1 [Example 14, 2-Amino-N-{4-[(3S)-3-aminopiperidin-1-yl]pyridin-3-yl}-6-cyclopropoxythieno[3,2-b]pyridine-3-carboxamide] | ≥ 8.00 | ≥ 8.00 | < 5.70
C[C@@H]1C[C@H](N)CN(c2ccncc2NC(=O)c2c(N)sc3cccnc23)C1 [Example 15, 2-Amino-N-{4-[(3S,5R)-3-amino-5-methyl-piperidin-1-yl]pyridin-3-yl}-thieno[3,2-b]pyridine-3-carboxamide] | ≥ 8.00 | ≥ 8.00 | 6.00 to 7.00
COc1ccnc2c(C(=O)Nc3cnccc3N3CCC[C@H](N)C3)c(N)sc12 [Example 16, 2-Amino-N-{4-[(3S)-3-aminopiperidin-1-yl]pyridin-3-yl}-7-methoxythieno[3,2-b]pyridine-3-carboxamide] | ≥ 8.00 | ≥ 8.00 | 6.00 to 7.00
COc1ccnc2c(C(=O)Nc3cnn(C)c3N3CCCC(N)CC3)c(N)sc12 (stereo not drawn) [Example 17, 2-Amino-N-[5-(4-aminoazepan-1-yl)-1-methyl-1H-pyrazol-4-yl]-7-methoxythieno[3,2-b]pyridine-3-carboxamide] | ≥ 8.00 | ≥ 8.00 | ≥ 8.00
CC(C)Oc1ccnc2c(C(=O)Nc3cnccc3N3CCC[C@H](N)C3)c(N)sc12 [Example 18, 2-Amino-N-{4-[(3S)-3-aminopiperidin-1-yl]pyridin-3-yl}-7-isopropoxythieno[3,2-b]pyridine-3-carboxamide] | ≥ 8.00 | < 7.40 | < 6.00
CC(C)Oc1ccnc2c(C(=O)Nc3cnn(C)c3N3CCCC(N)CC3)c(N)sc12 (stereo not drawn) [Example 19, 2-Amino-N-[5-(4-aminoazepan-1-yl)-1-methyl-1H-pyrazol-4-yl]-7-isopropoxythieno[3,2-b]pyridine-3-carboxamide] | ≥ 8.00 | ≥ 8.00 | 7.00 to 8.00
CCOc1ccnc2c(C(=O)Nc3cnccc3N3CCC[C@H](N)C3)c(N)sc12 [Example 20, 2-Amino-N-{4-[(3S)-3-aminopiperidin-1-yl]pyridin-3-yl}-7-ethoxythieno[3,2-b]pyridine-3-carboxamide] | ≥ 8.00 | ≥ 8.00 | 6.00 to 7.00
CCc1cnc2c(C(=O)Nc3cnccc3N3CCC[C@H](N)C3)c(N)sc2c1 [Example 22, 2-Amino-N-{4-[(3S)-3-aminopiperidin-1-yl]pyridin-3-yl}-6-ethylthieno[3,2-b]pyridine-3-carboxamide] | ≥ 8.00 | ≥ 8.00 | 7.00 to 8.00
CCc1cnc2c(C(=O)Nc3cnn(C)c3N3CCCC(N)CC3)c(N)sc2c1 (stereo not drawn) [Example 23, 2-Amino-N-[5-(4-aminoazepan-1-yl)-1-methyl-1H-pyrazol-4-yl]-6-ethylthieno[3,2-b]pyridine-3-carboxamide] | ≥ 8.00 | ≥ 8.00 | 7.00 to 8.00
Nc1sc2cc(-c3ccccc3)cnc2c1C(=O)Nc1cnccc1N1CCC[C@H](N)C1 [Example 24, 2-Amino-N-{4-[(3S)-3-aminopiperidin-1-yl]pyridin-3-yl}-6-phenylthieno[3,2-b]pyridine-3-carboxamide] | ≥ 8.00 | ≥ 8.00 | < 6.00
Cn1ncc(NC(=O)c2c(N)sc3cc(-c4ccccc4)cnc23)c1N1CCCC(N)CC1 (stereo not drawn) [Example 25, 2-Amino-N-[5-(4-aminoazepan-1-yl)-1-methyl-1H-pyrazol-4-yl]-6-phenylthieno[3,2-b]pyridine-3-carboxamide] | ≥ 8.00 | ≥ 8.00 | 7.00 to 8.00
Nc1sc2cc(-c3c(F)cccc3F)cnc2c1C(=O)Nc1cnccc1N1CCC[C@H](N)C1 [Example 26, 2-Amino-N-{4-[(3S)-3-aminopiperidin-1-yl]pyridin-3-yl}-6-(2,6-difluorophenyl)-thieno[3,2-b]pyridine-3-carboxamide] | ≥ 8.00 | ≥ 8.00 | 7.00 to 8.00

Source: patent US10000507B2, “Furo- and thieno-pyridine carboxamide compounds useful as pim kinase inhibitors” (Incyte Corporation, priority 2013, dated 2018)
